We go through six compounds from US9593149B2, “Amylin and calcitonin receptor agonist” (Novo Nordisk A/S, priority 2014, dated 2017).

Values after ≈ are worked out from the molar mass of the structure shown. Numbered stars: 1 amine (or outer) side, 2 acyl side, 3 side chain; on linkers, the order of the positions; unused ones are H or OH. Peptide text beside a SMILES is read from it. * marks the point of attachment. C20 diacid = O=C(O)CCCCCCCCCCCCCCCCCCC(=O)*; C18 diacid = O=C(O)CCCCCCCCCCCCCCCCC(=O)*; γGlu = O=C(O)[C@H](CCC(=O)[*:2])N[*:1]; AEEA = NCCOCCOCC(=O)O

The nature of this data set: Assay (IV) determination of solubility. The class given is physicochemical. As for the experimental part: Assay (IV)—Determination of Solubility
The mimylin peptide was dissolved in water at ˜500 nmol/ml and mixed 1:1 with a series of buffers (100 mM glycylglycine pH 3.0, 100 mM glycylglycine pH 4.0, 100 mM glycylglycine pH 5.0, 100 mM bistrispropane pH 6.0, 100 mM bistrispropane pH 6.5, 100 mM bistrispropane pH 7.0, 100 mM bistrispropane pH 7.5, 100 mM bistrispropane pH 8.0).

Regarding `CC(C)C[C@H](NC(=O)[C@H](C)NC(=O)[C@H](C)NC(=O)[C@@H](NC(=O)[C@H](CO)NC(=O)[C@H](CC(C)C)NC(=O)[C@H](CCC(=O)O)NC(=O)[C@H](CO)NC(=O)[C@H](C)NC(=O)CC[C@H](NC(=O)CCCCCCCCCCCCCCCCCCC(=O)O)C(=O)O)[C@@H](C)O)C(=O)NCC(=O)N[C@@H](CCCNC(=N)N)C(=O)N[C@@H](CC(C)C)C(=O)N[C@@H](CO)C(=O)N[C@@H](C)C(=O)N[C@@H](CCC(=O)O)C(=O)N[C@@H](CC(C)C)C(=O)N[C@@H](Cc1cnc[nH]1)C(=O)N[C@@H](CCC(=O)O)C(=O)N[C@@H](CC(C)C)C(=O)N[C@@H](C)C(=O)N[C@H](C(=O)N[C@@H](CC(C)C)C(=O)N1CCC[C@H]1C(=O)N[C@@H](CCCNC(=N)N)C(=O)N[C@H](C(=O)N[C@@H](CCC(=O)O)C(=O)N[C@H](C(=O)NCC(=O)N[C@@H](CO)C(=O)NCC(=O)N[C@@H](CO)C(=O)N[C@@H](CO)C(N)=O)[C@@H](C)O)[C@@H](C)O)[C@@H](C)O` [compound 63, [N-terminal(C20 diacid-gGlu), des1, 30S, 31G, 33S]mimylin] ({C20 diacid-γGlu}-ASELSTAALGRLSAELHELATLPRTETGSGSS-NH2), the Solubility entry was “≧200 μM” (pH 3.0); “≧200 μM” (pH 4.0); “≧200 μM” (pH 5.0); “≧200 μM” (pH 6.0); “≧200 μM” (pH 6.5); “≧200 μM” (pH 7.0). The Solubility entry (pH 7.5) is “≧200 μM” and the Solubility result (pH 8.0) is “≧200 μM”.

Turning to `CC(C)C[C@H](NC(=O)[C@H](C)NC(=O)[C@H](C)NC(=O)[C@@H](NC(=O)[C@H](CO)NC(=O)[C@H](CC(C)C)NC(=O)[C@H](CCC(=O)O)NC(=O)[C@H](CO)NC(=O)[C@H](C)NC(=O)CC[C@H](NC(=O)CCCCCCCCCCCCCCCCC(=O)O)C(=O)O)[C@@H](C)O)C(=O)NCC(=O)N[C@@H](CCCNC(=N)N)C(=O)N[C@@H](CC(C)C)C(=O)N[C@@H](CO)C(=O)N[C@@H](C)C(=O)N[C@@H](CCC(=O)O)C(=O)N[C@@H](CC(C)C)C(=O)N[C@@H](Cc1cnc[nH]1)C(=O)N[C@@H](CCC(=O)O)C(=O)N[C@@H](CC(C)C)C(=O)N[C@@H](C)C(=O)N[C@H](C(=O)N[C@@H](CC(C)C)C(=O)N1CCC[C@H]1C(=O)N[C@@H](CCCNC(=N)N)C(=O)N[C@H](C(=O)N[C@@H](CCC(=O)O)C(=O)N[C@H](C(=O)NCC(=O)N[C@@H](CO)C(=O)N1CCC[C@H]1C(=O)N[C@@H](CO)C(=O)N1CCC[C@H]1C(N)=O)[C@@H](C)O)[C@@H](C)O)[C@@H](C)O` [compound 35, [N-terminal(C18 diacid-gGlu), des1, 30S, 31P]mimylin] ({C18 diacid-γGlu}-ASELSTAALGRLSAELHELATLPRTETGSPSP-NH2), the Solubility result (pH 3.0) is “≧200 μM”; the Solubility result (pH 4.0) is reported as “≧200 μM”; the Solubility result (pH 5.0) was “≧200 μM”; the Solubility entry (pH 6.0) was “≧200 μM”; the Solubility entry (pH 6.5) is listed as “≧200 μM”; the Solubility entry (pH 7.0) is reported as “≧200 μM”. The Solubility entry by setting is: (pH 7.5) “≧200 μM”; (pH 8.0) “≧200 μM”.

`CC(C)C[C@H](NC(=O)[C@H](CCC(=O)O)NC(=O)[C@H](Cc1cnc[nH]1)NC(=O)[C@H](CC(C)C)NC(=O)[C@H](CCC(=O)O)NC(=O)[C@H](C)NC(=O)[C@H](CO)NC(=O)[C@H](CC(C)C)NC(=O)[C@H](CCCNC(=N)N)NC(=O)CNC(=O)[C@@H](NC(=O)[C@@H](NC(=O)[C@H](C)NC(=O)[C@@H](NC(=O)[C@H](CO)NC(=O)[C@@H](NC(=O)[C@H](CCC(=O)O)NC(=O)[C@H](CO)NC(=O)[C@H](C)NC(=O)CC[C@H](NC(=O)CCCCCCCCCCCCCCCCC(=O)O)C(=O)O)C(C)C)[C@@H](C)O)C(C)C)C(C)C)C(=O)N[C@@H](C)C(=O)N[C@H](C(=O)N[C@@H](CC(C)C)C(=O)N1CCC[C@H]1C(=O)N[C@@H](CCCNC(=N)N)C(=O)N[C@H](C(=O)N[C@@H](CCC(=O)O)C(=O)N[C@H](C(=O)NCC(=O)N[C@@H](CO)C(=O)NCC(=O)N[C@@H](CO)C(=O)N1CCC[C@H]1C(N)=O)[C@@H](C)O)[C@@H](C)O)[C@@H](C)O` [compound 96, [N-terminal(C18 diacid-gGlu), des1, 5V, 9V, 10V, 30S, 31G]mimylin] ({C18 diacid-γGlu}-ASEVSTAVVGRLSAELHELATLPRTETGSGSP-NH2): the Solubility entry was “≧200 μM” (pH 3.0); “≧200 μM” (pH 6.0); “≧200 μM” (pH 6.5); “≧200 μM” (pH 7.0); “≧200 μM” (pH 7.5); “≧200 μM” (pH 8.0). In addition, the solubility at 18 h is, setting by setting: (pH 4.0) 177 µM (≈ 646 µg/mL); (pH 5.0) 45 µM (≈ 164 µg/mL).

As for `CC(C)C[C@H](NC(=O)CNC(=O)[C@H](CO)NC(=O)[C@H](CC(C)C)NC(=O)[C@H](CCC(=O)O)NC(=O)CC[C@H](NC(=O)CCCCCCCCCCCCCCCCCCC(=O)O)C(=O)O)C(=O)N[C@@H](CO)C(=O)N[C@H](C(=O)N[C@@H](CC(C)C)C(=O)N[C@H](C(=O)N[C@@H](CC(C)C)C(=O)NCC(=O)N[C@@H](CCCNC(=N)N)C(=O)N[C@@H](CC(C)C)C(=O)N[C@@H](CO)C(=O)N[C@@H](CCC(N)=O)C(=O)N[C@@H](CCC(=O)O)C(=O)N[C@@H](CC(C)C)C(=O)N[C@@H](Cc1cnc[nH]1)C(=O)N[C@@H](CCC(=O)O)C(=O)N[C@@H](CC(C)C)C(=O)N[C@@H](CCC(N)=O)C(=O)N[C@H](C(=O)N[C@@H](Cc1ccc(O)cc1)C(=O)N1CCC[C@H]1C(=O)N[C@@H](CCCNC(=N)N)C(=O)N[C@H](C(=O)NCC(=O)N[C@H](C(=O)NCC(=O)N[C@@H](CO)C(=O)NCC(=O)N[C@H](C(=O)N[C@@H](Cc1ccc(O)cc1)C(N)=O)[C@@H](C)O)[C@@H](C)O)[C@@H](C)O)[C@@H](C)O)C(C)C)[C@@H](C)O` [compound 129, [N-terminal(C20 diacid-gGlu), 2L, 4G, 8L, 9V, 15Q, 21Q, 23Y, 27G, 30S, 31G, 32T, 33Y]mimylin] ({C20 diacid-γGlu}-ELSGLSTLVLGRLSQELHELQTYPRTGTGSGTY-NH2), the Solubility result runs as follows: (pH 3.0) “≧200 μM”; (pH 4.0) “≧200 μM”. In addition, the solubility at 18 h (pH 5.0) is 1 µM (≈ 4.02 µg/mL); the solubility at 18 h (pH 6.0) amounted to 1 µM (≈ 4.02 µg/mL); the solubility at 18 h (pH 6.5) was determined as 1 µM (≈ 4.02 µg/mL); the solubility at 18 h (pH 7.0) was 1 µM (≈ 4.02 µg/mL); the solubility at 18 h (pH 7.5) was 52 µM (≈ 209 µg/mL); the solubility at 18 h (pH 8.0) was found to be 185 µM (≈ 743 µg/mL).

In the case of `CC(C)C[C@H](NC(=O)[C@H](C)NC(=O)[C@H](C)NC(=O)[C@@H](NC(=O)[C@H](CO)NC(=O)[C@H](CC(C)C)NC(=O)[C@H](CCC(=O)O)NC(=O)[C@H](CO)NC(=O)[C@H](C)NC(=O)COCCOCCNC(=O)COCCOCCNC(=O)COCCOCCNC(=O)COCCOCCNC(=O)COCCOCCNC(=O)CC[C@H](NC(=O)CCCCCCCCCCCCCCCCCCC(=O)O)C(=O)O)[C@@H](C)O)C(=O)NCC(=O)N[C@@H](CCCNC(=N)N)C(=O)N[C@@H](CC(C)C)C(=O)N[C@@H](CO)C(=O)N[C@@H](C)C(=O)N[C@@H](CCC(=O)O)C(=O)N[C@@H](CC(C)C)C(=O)N[C@@H](Cc1cnc[nH]1)C(=O)N[C@@H](CCC(=O)O)C(=O)N[C@@H](CC(C)C)C(=O)N[C@@H](C)C(=O)N[C@H](C(=O)N[C@@H](CC(C)C)C(=O)N1CCC[C@H]1C(=O)N[C@@H](CCCNC(=N)N)C(=O)N[C@H](C(=O)N[C@@H](CCC(=O)O)C(=O)N[C@H](C(=O)NCC(=O)N[C@@H](CO)C(=O)NCC(=O)N[C@@H](CO)C(=O)N1CCC[C@H]1C(N)=O)[C@@H](C)O)[C@@H](C)O)[C@@H](C)O` [compound 45, [N-terminal(C20 diacid-gGlu-5xOEG), des1, 30S, 31G]mimylin] ({C20 diacid-γGlu-AEEA-AEEA-AEEA-AEEA-AEEA}-ASELSTAALGRLSAELHELATLPRTETGSGSP-NH2), the Solubility result by setting is: (pH 3.0) “≧200 μM”; (pH 4.0) “≧200 μM”; (pH 5.0) “≧200 μM”; (pH 6.0) “≧200 μM”; (pH 6.5) “≧200 μM”; (pH 7.0) “≧200 μM”. For the same compound, the Solubility result is, setting by setting: (pH 7.5) “≧200 μM”; (pH 8.0) “≧200 μM”.

In the case of `CC(C)C[C@H](NC(=O)CNC(=O)[C@H](CO)NC(=O)[C@H](C)NC(=O)CC[C@H](NC(=O)CCCCCCCCCCCCCCCCCCC(=O)O)C(=O)O)C(=O)N[C@@H](CO)C(=O)N[C@H](C(=O)N[C@@H](C)C(=O)N[C@H](C(=O)N[C@@H](CC(C)C)C(=O)NCC(=O)N[C@@H](CCCNC(=N)N)C(=O)N[C@@H](CC(C)C)C(=O)N[C@@H](CO)C(=O)N[C@@H](CCC(N)=O)C(=O)N[C@@H](CCC(=O)O)C(=O)N[C@@H](CC(C)C)C(=O)N[C@@H](Cc1cnc[nH]1)C(=O)N[C@@H](CCC(=O)O)C(=O)N[C@@H](CC(C)C)C(=O)N[C@@H](CCC(N)=O)C(=O)N[C@H](C(=O)N[C@@H](Cc1ccc(O)cc1)C(=O)N1CCC[C@H]1C(=O)N[C@@H](CCCNC(=N)N)C(=O)N[C@H](C(=O)N[C@@H](CCC(=O)O)C(=O)N[C@H](C(=O)NCC(=O)N[C@@H](CO)C(=O)NCC(=O)N[C@H](C(=O)N[C@@H](Cc1ccc(O)cc1)C(N)=O)[C@@H](C)O)[C@@H](C)O)[C@@H](C)O)[C@@H](C)O)[C@@H](C)O)[C@@H](C)O` [compound 124, [N-terminal(C20 diacid-gGlu), des1, 4G, 9T, 15Q, 21Q, 23Y, 30S, 31G, 32T, 33Y]mimylin] ({C20 diacid-γGlu}-ASGLSTATLGRLSQELHELQTYPRTETGSGTY-NH2), the Solubility entry was “≧200 μM” (pH 3.0); “≧200 μM” (pH 4.0); “≧200 μM” (pH 6.0); “≧200 μM” (pH 6.5); “≧200 μM” (pH 7.0); “≧200 μM” (pH 7.5). For the same compound, the Solubility entry (pH 8.0) was “≧200 μM”. Further, the solubility at 18 h (pH 5.0) was 61 µM (≈ 237 µg/mL).

As a reminder, the solubility is the dissolved amount per volume that the medium holds. The low end stands for a poorly soluble substance, the high end for a readily soluble substance.
